Reference: patent US8916526B2, “Flavanone derivative” (National University Corporation Okayama University, priority 2009, dated 2014)
Converted amounts (≈) assume the structure as drawn.

Key:
MRSA N315 = assay: In vitro infectivity assay (MIC), broth dilution, Exp. Ex. 1-1; type: cell-based, Staphylococcus aureus; details: MRSA N315, Mueller-Hinton broth, 35° C., 24 hours; for MIC: Staphylococcus aureus, read-out: MIC MRSA N315
Description: (§1) The antibacterial activities were measured based on broth dilution techniques of international standards (Clinical Laboratory Standards Institute: CLSI). The activities were shown by minimum inhibitory concentrations (MICs) determined by inoculating the above-mentioned strains at a concentration of about 10^5 […] into Mueller-Hinton broth (manufactured by Difco) containing 0.85% NaCl in 96-well microplates and incubating the plates at 35° C. for 24 hours. Measurement was carried out three times.
(§2) The antibacterial activities of the compounds of the present invention against various strains such as methicillin-resistant Staphylococcus aureus (MRSA), vancomycin intermediate-resistant Staphylococcus aureus (VISA), methicillin-sensitive Staphylococcus aureus (MSSA), and vancomycin-resistant enterococci (VRE) were examined. Of the bacteria used in MIC measurement in this test example, clinical bacteria of MRSA (OM481 strain and OM584 strain) were supplied from Okayama University Hospital (Japan). An MRSA strain N315, a vancomycin intermediate-resistant Staphylococcus aureus (VISA) strain Mu50, and a methicillin-sensitive Staphylococcus aureus (MSSA) strain FDA 209P were used as controls. Vancomycin-resistant enterococcus (VRE) strains NCTC 12201 and FN-1 were supplied from the National Institute of Infectious Disease (Japan).

MRSA OM481 = assay: as above; type: cell-based, Staphylococcus aureus; details: MRSA OM481, Mueller-Hinton broth, 35° C., 24 hours; for MIC: Staphylococcus aureus, read-out: MIC MRSA OM481
Description: as §1, §2

MRSA OM58 = assay: as above; type: cell-based, Staphylococcus aureus; details: MRSA OM58, Mueller-Hinton broth, 35° C., 24 hours; for MIC: Staphylococcus aureus, read-out: MIC MRSA OM58
Description: as §1, §2

MSSA FDA 209P = assay: as above; type: cell-based, Staphylococcus aureus; details: MSSA FDA 209P, Mueller-Hinton broth, 35° C., 24 hours; for MIC: Staphylococcus aureus, read-out: MIC MSS 209P
Description: as §1, §2

VISA Mu50 = assay: as above; type: cell-based, Staphylococcus aureus; details: VISA Mu50, Mueller-Hinton broth, 35° C., 24 hours
Description: as §1, §2

VRE FN-1 = assay: as above; type: cell-based, enterococci; details: VRE FN-1, Mueller-Hinton broth, 35° C., 24 hours
Description: as §1, §2

VRE NCTC12201 = assay: as above; type: cell-based, enterococci; details: VRE NCTC12201, Mueller-Hinton broth, 35° C., 24 hours
Description: as §1, §2

[1] = target: T1, DNA gyrase of Escherichia coli (Escherichia coli, UniProt P0AES4+P0AES6); assay: DNA gyrase inhibition (supercoiling assay kit), Exp. Ex. 1-2; type: biochemical; details: E. coli DNA gyrase supercoiling, relaxed pBR322, 37° C., 30 minutes; for IC50: read-out: Gyrase inhibitory activity IC50 (converted)
T1 construct: purchased John Innes Enterprises #K0001
T1 sequence (P0AES4 whole entry, one chain of several): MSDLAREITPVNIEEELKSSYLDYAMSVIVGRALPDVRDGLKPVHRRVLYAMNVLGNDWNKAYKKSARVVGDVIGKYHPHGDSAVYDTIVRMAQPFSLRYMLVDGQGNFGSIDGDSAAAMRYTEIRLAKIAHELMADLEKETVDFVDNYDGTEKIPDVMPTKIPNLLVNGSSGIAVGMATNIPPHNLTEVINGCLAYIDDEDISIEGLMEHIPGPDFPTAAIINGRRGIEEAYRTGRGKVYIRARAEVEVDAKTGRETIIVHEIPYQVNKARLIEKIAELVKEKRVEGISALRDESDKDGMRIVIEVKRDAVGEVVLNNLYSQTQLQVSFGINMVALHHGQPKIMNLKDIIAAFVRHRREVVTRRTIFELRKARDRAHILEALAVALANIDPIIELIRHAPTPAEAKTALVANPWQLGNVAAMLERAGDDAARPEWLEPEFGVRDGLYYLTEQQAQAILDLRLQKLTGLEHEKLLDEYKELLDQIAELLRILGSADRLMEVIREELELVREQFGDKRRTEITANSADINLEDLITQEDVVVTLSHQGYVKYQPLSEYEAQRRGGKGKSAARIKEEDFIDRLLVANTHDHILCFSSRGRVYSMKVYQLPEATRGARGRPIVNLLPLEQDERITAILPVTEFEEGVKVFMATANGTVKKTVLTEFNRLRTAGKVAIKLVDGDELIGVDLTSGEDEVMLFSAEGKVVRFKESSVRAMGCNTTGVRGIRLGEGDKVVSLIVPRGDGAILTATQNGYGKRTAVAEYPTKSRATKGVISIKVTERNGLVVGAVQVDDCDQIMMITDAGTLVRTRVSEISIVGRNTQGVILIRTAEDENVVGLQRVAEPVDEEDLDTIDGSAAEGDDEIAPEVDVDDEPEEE
Description: (§3) As a kit for measurement of DNA gyrase of Escherichia coli, a product purchased from John Innes Enterprises (Gyrase Supercoiling assay kit #K0001) was used. Relaxed DNA was modified with gyrase into supercoiled DNA, and reaction products were separated by electrophoresis depending on the sizes of the molecular weights to examine anti-gyrase effects (IC50). One unit (1 U) of DNA gyrase and […] of relaxed pBR322 DNA were added to […] of the reaction solution, and the mixture was allowed to react at 37° C. for 30 minutes in the presence of 35 mM Tris-HCl (pH 7.5), 24 mM KCl, 4 mM MgCl2, 2 mM DTT, 1.8 mM spermidine, 1 mM ATP, 6.5% (w/v) glycerol, and 0.1 mg/ml BSA. The reactions were stopped using […] of a reaction stop solution (40% sucrose, 100 mM Tris-HCl (pH 7.5), 1 mM EDTA, 0.5 mg/ml bromophenol blue).

[2] = tested on: Methicillin sensitive S. aureus 209P; assay: In vitro infectivity assay (MIC), Exp. Ex. 2-1; type: cell-based, Staphylococcus aureus; details: Staphylococcus aureus, 209P / MSSA; Gram-positive; microdilution, MIC after 24 h; read-out: MIC MSSA 209P
Description: as §1
as §2, with “vancomycin-resistant enterococci (VRE),” for “methicillin-resistant Staphylococcus aureus (MRSA),”, “(VISA), methicillin-resistant Staphylococcus aureus (MRSA), and” for “(VISA),”, “(MSSA)” for “(MSSA), and vancomycin-resistant enterococci (VRE)”

[3] = tested on: Methicillin-resistant S. aureus COL; assay: In vitro infectivity assay (MIC), Exp. Ex. 2-1; type: cell-based, Staphylococcus aureus; details: Staphylococcus aureus, MRSA; Gram-positive; microdilution, MIC after 24 h
Description: as §1
as §2, with “vancomycin-resistant enterococci (VRE),” for “methicillin-resistant Staphylococcus aureus (MRSA),”, “(VISA), methicillin-resistant Staphylococcus aureus (MRSA), and” for “(VISA),”, “(MSSA)” for “(MSSA), and vancomycin-resistant enterococci (VRE)”

[4] = tested on: Methicillin-resistant S. aureus N315; assay: In vitro infectivity assay (MIC), Exp. Ex. 2-1; type: cell-based, Staphylococcus aureus; details: Staphylococcus aureus, MRSA; Gram-positive; microdilution, MIC after 24 h; read-out: MIC MRSA N315
Description: as §1
as §2, with “vancomycin-resistant enterococci (VRE),” for “methicillin-resistant Staphylococcus aureus (MRSA),”, “(VISA), methicillin-resistant Staphylococcus aureus (MRSA), and” for “(VISA),”, “(MSSA)” for “(MSSA), and vancomycin-resistant enterococci (VRE)”

[5] = tested on: Methicillin-resistant S. aureus OM481; assay: In vitro infectivity assay (MIC), Exp. Ex. 2-1; type: cell-based, Staphylococcus aureus; details: Staphylococcus aureus, MRSA; Gram-positive; microdilution, MIC after 24 h; read-out: MIC MRSA OM481
Description: as §1
as §2, with “vancomycin-resistant enterococci (VRE),” for “methicillin-resistant Staphylococcus aureus (MRSA),”, “(VISA), methicillin-resistant Staphylococcus aureus (MRSA), and” for “(VISA),”, “(MSSA)” for “(MSSA), and vancomycin-resistant enterococci (VRE)”

[6] = tested on: Methicillin-resistant S. aureus OM584; assay: In vitro infectivity assay (MIC), Exp. Ex. 2-1; type: cell-based, Staphylococcus aureus; details: Staphylococcus aureus, MRSA; Gram-positive; microdilution, MIC after 24 h; read-out: MIC MRSA OM584
Description: as §1
as §2, with “vancomycin-resistant enterococci (VRE),” for “methicillin-resistant Staphylococcus aureus (MRSA),”, “(VISA), methicillin-resistant Staphylococcus aureus (MRSA), and” for “(VISA),”, “(MSSA)” for “(MSSA), and vancomycin-resistant enterococci (VRE)”

[7] = tested on: Streptococcus pneumoniae R6; assay: In vitro infectivity assay (MIC), Exp. Ex. 2-1; type: cell-based; details: Streptococcus pneumoniae, R6, 24 h, read-out: MIC S. Pneumoniae R6
Escherichia coli K-12 = assay: Antibacterial activity (MIC) against Gram-negative strains, microdilution; type: cell-based; details: K12, MIC after 24 h, read-out: MIC (Gram-nagative) K-12
Description: as §1

[8] = tested on: Pseodomonas aeruginosa PAOI; assay: as above; type: cell-based; details: MIC after 24 h, read-out: MIC (Gram-nagative) PAO1
Description: as §1

E. coli DNA gyrase = target: T2, E. coli DNA gyrase (Escherichia coli, UniProt P0AES4+P0AES6); assay: DNA gyrase inhibition (supercoiling kit), Exp. Ex. 2-2; type: biochemical
T2 construct: purchased John Innes Enterprises #K0001
T2 sequence (P0AES4 whole entry, one chain of several): as above
Description: as §3, with “1” for “One”

Structure (SMILES) | MIC MRSA N315 (MRSA N315) [µg/mL] | MIC MRSA OM481 (MRSA OM481) [µg/mL] | MIC MRSA OM58 (MRSA OM58) [µg/mL] | MIC MSS 209P (MSSA FDA 209P) [µg/mL] | MIC VISA Mu50 (VISA Mu50) [µg/mL] | MIC VRE FN-1 (VRE FN-1) [µg/mL] | MIC VRE NCTC 12201 (VRE NCTC12201) [µg/mL] | Gyrase inhibitory activity IC50 [1] [µg/mL] | melting point [°C] | further results
O=C(O[C@H]1[C@H](Oc2c(-c3ccc(O)c(O)c3)oc3cc(O)cc(O)c3c2=O)O[C@H](CO)[C@@H](O)[C@@H]1OC(=O)c1ccc(F)cc1)c1ccc(F)cc1 [Compound 15g, 2-(3′,4′-Dihydroxy)-5,7-dihydroxy-3-β-D-(2″,3″-di-p-flurobenzoyloxy)glucosyl-4H-chromen-4-one] | 2 (≈ 2.82 µM) | 16 (≈ 22.6 µM) | 16 (≈ 22.6 µM) | 2 (≈ 2.82 µM) | 2 (≈ 2.82 µM) | 8 (≈ 11.3 µM) | 8 (≈ 11.3 µM) | 4.25 | – | –
O=C(CCc1ccc(F)cc1)c1cc(O)c2c(=O)c(C(=O)CCc3ccc(F)cc3)c(-c3ccc(O)c(O)c3)oc2c1 [Compound 2b, 2-(3′,4′-Dihydroxyphenyl)-5-hydroxy-3,7-di-(4-fluorophenylpropanoyl)-4H-chromen-4-one] | – | – | – | – | – | – | – | – | 119 to 121 | –
O=c1c(O[C@@H]2O[C@H](CO)[C@@H](O)[C@H](O)[C@H]2O)c(-c2ccc(O)c(O)c2)oc2cc(O)cc(O)c12 [Compound 17, 2-(3′4′-Dihydroxy)-5,7-dihydroxy-3-β-D-glucosyl-4H-chromen-4-one] | – | – | – | – | – | – | – | – | – | MIC (MRSA N315): > 128 µg/mL; MIC (MRSA OM481): > 128 µg/mL; MIC (MRSA OM58): > 128 µg/mL; MIC (MSSA FDA 209P): > 128 µg/mL; MIC (VISA Mu50; Staphylococcus aureus, read-out: MIC VISA Mu50): > 128 µg/mL; MIC (VRE FN-1; Enterococcus, read-out: MIC VRE FN-1): > 128 µg/mL; MIC (VRE NCTC12201; Enterococcus, read-out: MIC VRE NCTC12201): > 128 µg/mL; IC50 [1]: > 25800 nM
O=c1c([C@@H]2O[C@H](CO)[C@H](O)[C@H](O)[C@H]2O)c(-c2ccc(O)c(O)c2)oc2cc([C@@H]3O[C@H](CO)[C@H](O)[C@H](O)[C@H]3O)cc(O)c12 [Compound 6, 2-(3′,4′-Dihydroxyphenyl)-5-hydroxy-3,7-di-β-D-galactosyl-4H-chromen-4-one] | – | – | – | – | – | – | – | – | 215 to 217 | –
O=C(CCc1ccc(O)cc1)O[C@H]1[C@H](Oc2c(-c3ccc(O)c(O)c3)oc3cc(O)cc(O)c3c2=O)O[C@H](CO)[C@@H](O)[C@@H]1OC(=O)CCc1ccc(O)cc1 [Compound 15a, 2-(3′,4′-Dihydroxy)-5,7-dihydroxy-3-β-D-(2″,3″-di-p-hydroxyphenylethylcarboxy)glucosyl-4H-chromen-4-one] | 4 (≈ 5.26 µM) | 4 (≈ 5.26 µM) | 4 (≈ 5.26 µM) | 4 (≈ 5.26 µM) | 4 (≈ 5.26 µM) | 8 (≈ 10.5 µM) | 8 (≈ 10.5 µM) | 2.54 | – | –
CCOc1ccc(CCC(=O)O[C@H]2[C@H](Oc3c(-c4ccc(O)c(O)c4)oc4cc(O)cc(O)c4c3=O)O[C@H](CO)[C@@H](O)[C@@H]2OC(=O)CCc2ccc(OCC)cc2)cc1 [Compound 15b, 2-(3′,4′-Dihydroxy)-5,7-dihydroxy-3-β-D-(2″,3″-di-p-ethoxyphenylethylcarboxy)glucosyl-4H-chromen-4-one] | 2 (≈ 2.45 µM) | 4 (≈ 4.9 µM) | 8 (≈ 9.79 µM) | 2 (≈ 2.45 µM) | 4 (≈ 4.9 µM) | 8 (≈ 9.79 µM) | 8 (≈ 9.79 µM) | 9.23 | – | –
Cc1ccc(CCC(=O)c2cc(O)c3c(=O)c(C(=O)CCc4ccc(C)cc4)c(-c4ccc(O)c(O)c4)oc3c2)cc1 [Compound 2a, 2-(3′,4′-Dihydroxyphenyl)-5-hydroxy-3,7-di-(4-methylphenylpropanoyl)-4H-chromen-4-one] | – | – | – | – | – | – | – | – | 105 to 107 | –
CCn1cc(C(=O)O)c(=O)c2cc(F)c(N3CCNCC3)cc21 [Norfloxacin, norfloxacin, reference compound] | – | – | – | – | – | – | – | – | – | MIC (MRSA N315): 2 µg/mL (≈ 6.26 µM); MIC (MRSA OM481): 128 µg/mL (≈ 401 µM); MIC (MRSA OM58): 64 µg/mL (≈ 200 µM); MIC (MSSA FDA 209P): 0.5 µg/mL (≈ 1.57 µM); IC50 [1]: 908 nM; MIC [2]: 0.5 µg/mL (≈ 1.57 µM); MIC [3]: 1 µg/mL (≈ 3.13 µM); MIC [4]: 2 µg/mL (≈ 6.26 µM); MIC [5]: 64 µg/mL (≈ 200 µM); MIC [6]: 128 µg/mL (≈ 401 µM); MIC [7]: 0.25 µg/mL (≈ 0.783 µM); MIC (Escherichia coli K-12): 0.25 µg/mL (≈ 0.783 µM); MIC [8]: 0.25 µg/mL (≈ 0.783 µM); IC50 (E. coli DNA gyrase): 90 nM
